Activity calls are given as the source filed them. The calls are words filed in the database; no cut-off is given here.
Key:
[1] = biological target: T1, Protein cereblon/Tyrosine-protein kinase BTK (Homo sapiens, UniProt Q06187+Q96SW2); experiment: PROTAC activity at CRBN/BTK in human JeKo-1 cells assessed as BTK degradation at 10 nM incubated for 24 hrs by Western blot analysis relative to control; assay type: cell-based
Target sequence in this assay (Q06187 2-659 limits assumed): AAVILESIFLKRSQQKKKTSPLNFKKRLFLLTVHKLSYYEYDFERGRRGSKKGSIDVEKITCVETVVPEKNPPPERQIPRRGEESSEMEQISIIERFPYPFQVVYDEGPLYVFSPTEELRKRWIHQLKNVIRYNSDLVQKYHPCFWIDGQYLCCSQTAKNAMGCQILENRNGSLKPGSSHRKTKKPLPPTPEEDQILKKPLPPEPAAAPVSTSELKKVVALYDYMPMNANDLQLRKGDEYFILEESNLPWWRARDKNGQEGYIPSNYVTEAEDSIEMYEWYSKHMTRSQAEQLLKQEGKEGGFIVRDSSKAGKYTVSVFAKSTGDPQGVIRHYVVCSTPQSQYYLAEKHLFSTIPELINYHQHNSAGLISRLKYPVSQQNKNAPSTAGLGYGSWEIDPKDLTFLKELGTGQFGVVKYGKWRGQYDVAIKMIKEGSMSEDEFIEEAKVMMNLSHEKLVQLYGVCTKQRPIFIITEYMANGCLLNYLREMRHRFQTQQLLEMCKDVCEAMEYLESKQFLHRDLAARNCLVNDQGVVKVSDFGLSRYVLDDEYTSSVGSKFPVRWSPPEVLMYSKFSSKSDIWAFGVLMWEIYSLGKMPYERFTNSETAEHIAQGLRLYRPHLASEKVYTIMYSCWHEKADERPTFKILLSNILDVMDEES
Target sequence in this assay (Q96SW2 whole entry partner): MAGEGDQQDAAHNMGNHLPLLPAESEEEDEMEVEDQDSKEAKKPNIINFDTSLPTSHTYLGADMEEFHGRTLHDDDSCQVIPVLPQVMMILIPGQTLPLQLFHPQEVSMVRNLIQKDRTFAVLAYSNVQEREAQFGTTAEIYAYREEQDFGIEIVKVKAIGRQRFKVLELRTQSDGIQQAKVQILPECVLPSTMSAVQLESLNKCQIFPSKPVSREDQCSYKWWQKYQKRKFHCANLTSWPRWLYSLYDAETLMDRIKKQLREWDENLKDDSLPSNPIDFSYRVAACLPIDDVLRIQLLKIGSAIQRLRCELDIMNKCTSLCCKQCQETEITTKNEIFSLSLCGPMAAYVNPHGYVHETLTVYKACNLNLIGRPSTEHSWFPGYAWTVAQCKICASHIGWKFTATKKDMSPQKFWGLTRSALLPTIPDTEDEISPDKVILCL

[2] = biological target: T1, Protein cereblon/Tyrosine-protein kinase BTK; experiment: PROTAC activity at CRBN/BTK in human JeKo-1 cells assessed as BTK degradation at 30 nM incubated for 24 hrs by Western blot analysis relative to control; assay type: cell-based
Target sequence in this assay (Q06187 2-659 limits assumed): as the sequence (Q06187 2-659 limits assumed) above
Target sequence in this assay (Q96SW2 whole entry partner): as the sequence (Q96SW2 whole entry partner) above

[3] = biological target: T1, Protein cereblon/Tyrosine-protein kinase BTK; experiment: PROTAC activity at CRBN/BTK in human JeKo-1 cells assessed as BTK degradation at 100 nM incubated for 24 hrs by Western blot analysis relative to control; assay type: cell-based
Target sequence in this assay (Q06187 2-659 limits assumed): as the sequence (Q06187 2-659 limits assumed) above
Target sequence in this assay (Q96SW2 whole entry partner): as the sequence (Q96SW2 whole entry partner) above

[4] = biological target: T1, Protein cereblon/Tyrosine-protein kinase BTK; experiment: PROTAC activity at CRBN/BTK in human JeKo-1 cells assessed as BTK degradation incubated for 24 hrs by Western blot analysis; assay type: cell-based
[5] = Microsomal stability in human liver microsomes assessed as half life measured up to 60 mins in presence of NADPH by LC-MS/MS analysis; assay type: ADME, Microsome
[6] = Microsomal stability in human liver microsomes assessed as intrinsic clearance in microsomes measured up to 60 mins in presence of NADPH by LC-MS/MS analysis; assay type: ADME, Microsome; conditions: read-out: CLH
[7] = Microsomal stability in human liver microsomes assessed as intrinsic clearance in liver measured up to 60 mins in presence of NADPH by LC-MS/MS analysis; assay type: ADME, Microsome; conditions: read-out: CLH
[8] = Microsomal stability in human liver microsomes assessed as compound remaining measured up to 60 mins in presence of NADPH by LC-MS/MS analysis; assay type: ADME, Microsome; conditions: read-out: Stability
[9] = Microsomal stability in human liver microsomes assessed as compound remaining measured up to 60 mins by LC-MS/MS analysis; assay type: ADME, Microsome; conditions: read-out: Stability
[10] = biological target: T1, Protein cereblon/Tyrosine-protein kinase BTK; experiment: PROTAC activity at CRBN/BTK in human JeKo-1 cells assessed as hook effect up to 1 uM incubated for 24 hrs by Western blot analysis; assay type: cell-based
Target sequence in this assay (Q06187 2-659 limits assumed): as the sequence (Q06187 2-659 limits assumed) above
Target sequence in this assay (Q96SW2 whole entry partner): as the sequence (Q96SW2 whole entry partner) above

[11] = biological target: T1, Protein cereblon/Tyrosine-protein kinase BTK; experiment: PROTAC activity at CRBN/BTK in human JeKo-1 cells assessed as BTK degradation at 100 nM by Western blot analysis; assay type: cell-based; conditions: time 1-24 hrs
Target sequence in this assay (Q06187 2-659 limits assumed): as the sequence (Q06187 2-659 limits assumed) above
Target sequence in this assay (Q96SW2 whole entry partner): as the sequence (Q96SW2 whole entry partner) above

[12] = biological target: T1, Protein cereblon/Tyrosine-protein kinase BTK; experiment: PROTAC activity at CRBN/BTK in human JeKo-1 cells assessed as BTK degradation at 100 nM measured after 4 hrs by Western blot analysis relative to control; assay type: cell-based
Target sequence in this assay (Q06187 2-659 limits assumed): as the sequence (Q06187 2-659 limits assumed) above
Target sequence in this assay (Q96SW2 whole entry partner): as the sequence (Q96SW2 whole entry partner) above

[13] = biological target: T1, Protein cereblon/Tyrosine-protein kinase BTK; experiment: PROTAC activity at CRBN/BTK in human TMD8 cells assessed as BTK degradation measured after 24 hrs by Western blot analysis; assay type: cell-based
[14] = test system: Protein cereblon/Tyrosine-protein kinase BTK (Homo sapiens), Q06187+Q96SW2 [C481S]; experiment: (§1) PROTAC activity at CRBN/BTK C481S mutant (unknown origin) expressed in human TMD8 cells assessed as BTK degradation measured after 24 hrs by Western blot analysis; assay type: cell-based; conditions: dose 0.1-1000 nM
[15] = biological target: Protein cereblon/Tyrosine-protein kinase BTK (Homo sapiens, UniProt Q06187+Q96SW2, C481S); experiment: as §1; assay type: cell-based
Sequence of Protein cereblon/Tyrosine-protein kinase BTK (Homo sapiens, UniProt Q06187+Q96SW2, C481S) (Q06187 whole entry, looked up, stated change not applied): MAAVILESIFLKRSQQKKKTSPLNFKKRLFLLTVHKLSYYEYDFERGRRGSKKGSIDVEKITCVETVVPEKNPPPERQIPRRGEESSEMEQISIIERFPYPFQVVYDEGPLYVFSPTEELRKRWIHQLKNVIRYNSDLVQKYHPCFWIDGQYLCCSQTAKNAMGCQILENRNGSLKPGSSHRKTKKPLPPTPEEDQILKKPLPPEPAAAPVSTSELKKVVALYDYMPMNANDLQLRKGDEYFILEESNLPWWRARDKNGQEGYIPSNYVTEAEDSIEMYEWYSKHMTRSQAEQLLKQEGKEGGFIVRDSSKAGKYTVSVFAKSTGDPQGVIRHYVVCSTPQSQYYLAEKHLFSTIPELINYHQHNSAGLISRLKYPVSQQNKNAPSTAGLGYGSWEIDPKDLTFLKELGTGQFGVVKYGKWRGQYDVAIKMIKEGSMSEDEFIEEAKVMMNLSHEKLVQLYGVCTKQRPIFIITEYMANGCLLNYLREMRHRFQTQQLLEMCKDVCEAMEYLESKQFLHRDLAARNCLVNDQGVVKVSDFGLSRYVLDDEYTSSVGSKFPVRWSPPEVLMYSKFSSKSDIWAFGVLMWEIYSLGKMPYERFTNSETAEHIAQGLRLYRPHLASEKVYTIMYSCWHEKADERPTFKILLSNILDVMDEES
Sequence of Protein cereblon/Tyrosine-protein kinase BTK (Homo sapiens, UniProt Q06187+Q96SW2, C481S) (Q96SW2 whole entry, looked up, stated change not applied): as the sequence (Q96SW2 whole entry partner) above

[16] = biological target: T1, Protein cereblon/Tyrosine-protein kinase BTK; experiment: PROTAC activity at CRBN/BTK in human JeKo-1 cells assessed as BTK degradation at 10 nM incubated for 24 hrs in presence of MLN-4924 by Western blot analysis; assay type: cell-based
[17] = biological target: T1, Protein cereblon/Tyrosine-protein kinase BTK; experiment: PROTAC activity at CRBN/BTK in human JeKo-1 cells assessed as BTK degradation at 10 nM incubated for 24 hrs in presence of bortezomib by Western blot analysis; assay type: cell-based
[18] = biological target: T1, Protein cereblon/Tyrosine-protein kinase BTK; experiment: PROTAC activity at CRBN/BTK in human JeKo-1 cells assessed as BTK degradation incubated for 8 hrs by Western blot analysis; assay type: cell-based; conditions: dose 0.1-1000 nM
JeKo-1 [19] = experiment: Effect on IKZF3 level in human JeKo-1 cells at 0.1 to 1000 nM incubated for 8 hrs by Western blot analysis; assay type: functional, cell-based; conditions: dose 0.1-1000 nM
JeKo-1 [20] = experiment: Effect on GSPT1 level in human JeKo-1 cells at 0.1 to 1000 nM incubated for 8 hrs by Western blot analysis; assay type: functional, cell-based; conditions: dose 0.1-1000 nM
JeKo-1 [21] = experiment: Effect on IKZF1 level in human JeKo-1 cells at 0.1 to 1000 nM incubated for 8 hrs by Western blot analysis; assay type: functional, cell-based; conditions: dose 0.1-1000 nM
[22] = Cytotoxicity against human TMD8 cells harboring wild-type BTK assessed as inhibition of cell viability incubated for 5 days by CCK8 assay; assay type: functional, cell-based; conditions: TMD8, 120 h
[23] = Cytotoxicity against human TMD8 cells harboring BTK C481S mutant assessed as inhibition of cell viability incubated for 5 days by CCK8 assay; assay type: functional, cell-based; conditions: TMD8, 120 h

Structure (SMILES)	Activity [1]	Activity [2]	Activity [3]	DC50 [4]	half-life [5]	microsomal CLint [6]	CLint scaled [7]	remaining at 1 h [8]	remaining at 1 h [9]	IC50 [22]	IC50 [23]	other results
O=C1CCC(c2ccc(N3CCC(CCN4CCC(CC(=O)N[C@H]5CC[C@H](Nc6ncnc7[nH]cc(C(=O)c8ccc(Oc9ccccc9)cc8)c67)C5)CC4)CC3)cc2)C(=O)N1 (stereo partly drawn)	78%	81%	85%	0.0017 µM	> 2.42 h	< 9.6 µL/min/mg	< 8.6 mL/min/kg	92.2%	99.8%	0.0246 µM	0.0265 µM	Activity ([4]; dose 0.01-1000 nM): Dose-dependent-effect; Activity [10]: inactive; Activity [11]: Time-dependent-effect; Compound Exhibited Significant Reduction At 1 Hr; Activity [12]: 100%; DC50 [13]: 0.0034 µM; Activity ([13]; dose 0.1-1000 nM): Dose-dependent-effect; Activity [14]: Dose-dependent-effect; DC50 [15]: 0.0056 µM; Activity [16]: inactive; Activity [17]: inactive; Activity [18]: Dose-dependent-effect; Activity (JeKo-1 [19]): inactive; Activity (JeKo-1 [20]): inactive; Activity (JeKo-1 [21]): inactive
O=C(c1ccc(Oc2ccccc2)cc1Cl)c1c[nH]c2ncnc(N[C@@H]3CC[C@@H](CO)OC3)c12 [NEMTABRUTINIB]	–	–	–	–	–	–	–	–	–	0.335 µM	0.594 µM	–
NC(=O)c1ncc(N2CCCCC2)nc1Nc1ccc(C2CCN(C[C@@H]3CCN(c4ccc5c(c4)C(=O)N(C4CCC(=O)NC4=O)C5=O)C3)CC2)cc1 (stereo partly drawn)	–	–	–	–	–	–	–	–	–	0.0088 µM	0.018 µM	–
O=C1CCC(c2ccc(N3CCC(CN4CCC(CC(=O)N[C@H]5CC[C@H](Nc6ncnc7[nH]cc(C(=O)c8ccc(Oc9ccccc9)cc8)c67)C5)CC4)CC3)cc2)C(=O)N1 (stereo partly drawn)	69%	85%	88%	0.0036 µM	1.47 h	15.8 µL/min/mg	14.2 mL/min/kg	55.6%	96.8%	–	–	–

Source: ChEMBL document CHEMBL6134821, “Design, synthesis, and biological evaluation of novel BTK-targeting proteolysis targeting chimeras (PROTACs) with enhanced pharmacokinetic properties” (Eur J Med Chem, 2025)
